Test results as given in patent US20170107179A1 (Tetraphase Pharmaceuticals, Inc., priority 2010, published 2017).

Test system: Gram-negative and Gram-positive organisms (clinical isolates)
Test: Broth microdilution MIC against clinical isolates (CLSI M7-A8), Table 9
Assay type: cell-based

SMILES: CN(C)c1cc(NC(=O)CNC(C)(C)C)c(O)c2c1C[C@H]1C[C@H]3[C@H](N(C)C)C(O)=C(C(N)=O)C(=O)[C@@]3(O)C(O)=C1C2=O [Tigecycline, tigecycline]
- MICs against tetracycline resistant isolates relative to tetracycline susceptible isolates: not notably altered
